From patent US20080132554A1, “CRYSTAL FORM OF 2-(3-FLUORO-4-HYDROXYPHENYL)-7-VINYL-1,3-BENZOXAZOL-5-OL” (WYETH, priority 2006, published 2008)

Assay: Conversion of the crystal form when suspended and stirred in solvent
Assay type: physicochemical
Details: room temperature, seven days
Excerpt: The anhydrate crystal form (Form D) can be converted to other crystal forms under suitable conditions.

C=Cc1cc(O)cc2nc(-c3ccc(O)c(F)c3)oc12 [Form D, 2-(3-fluoro-4-hydroxyphenyl)-7-vinyl-1,3-benzoxazol-5-ol]
crystal form conversion after suspension and stirring (in acetone): another anhydrate crystal form is obtained | crystal form conversion after suspension and stirring (in ethanol): another anhydrate crystal form is obtained | crystal form conversion after suspension and stirring (in methanol): another anhydrate crystal form is obtained | crystal form conversion after suspension and stirring (in water): most of the anhydrate crystal form is converted to a hydrate crystal form
